What is called IC50 is the point on the concentration scale where inhibition reaches its midpoint. Read a high IC50 as a need for much substance. What is called AC50 is the concentration at which the activity in the assay is half-maximal. Read a low AC50 as activity at low concentration.

For data set [1], the system named is 786-O. Nature of the data set: Cytotoxicity in vitro (MTT) in presence/absence of elastase. Format: cell-based, human. To be noted: 72 h. The method in brief: (§1)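 Cells seeded 24 h, then treated in triplicate with compound (10^−5 to 10^−13 M) alone or with 10 nM elastase for 72 h at 37° C. Proliferation by MTT (4 h, overnight detergent lysis, 570 nm), relative to untreated cells as 100%.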

For data set [2], the system named is HT29. Described as above. Format: cell-based, human. To be noted: 72 h. The method in brief: as §1
Data set [3] has as its system NCI H292. The description is as above. The format is cell-based, human. The note with it: 72 h. The gist of the method: as §1
In data set [4] the test system is SUM149. The data set is described as above. Format: cell-based. To be noted: 72 h. The gist of the method: as §1
In data set [5] the test system is 786-O. In words: Cytotoxicity assay (Version 2, automated, AC50) with/without neutrophil elastase. The format is cell-based, human. The note with it: Version 2, activity concentration at −50%. The method in brief: (§2)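 Cells were treated in triplicate with compound at 10^−5 M to 10^−13 M, with or without 10 nM elastase, for 72 h at 37 °C. Viability was read by MTT at 570 nm, normalized to cell-free medium (−100%) and DMSO-treated cells (0%); AC50 at −50% from 4-parameter Hill fit.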

In data set [6] the test system is HT29. The description is as above. The format is cell-based, human. To be noted: Version 2, activity concentration at −50%. The gist of the method: as §2
For data set [7], the system named is NCI H292. The data set is described as above. The format is cell-based, human. The note with it: NCI H292, with (+) neutrophil elastase, Version 2, activity concentration at −50%. The gist of the method: as §2
The subject of data set [8] is SUM149. The data set is described as above. The format is cell-based. To be noted: Version 2, activity concentration at −50%. The method in brief: as §2
The conditions of data set [9]: 37° C. The protocol:
Method for measurement of stability in rat and human plasma: 1 mg of the test compound was dissolved in 0.5 ml acetonitrile/dimethylsulfoxide 1:1. For complete dissolution the HPLC vial was shaken and sonicated. While vortexing, 20 μl of this solution was added to 1 ml 37° C. warm plasma. After 10 min, 0.5 h, 1 h, 1.5 h, 2 h, and 4 h, the assay was stopped by adding 100 μl of the compound plasma solution to a vial containing 300 μl acetonitrile/buffer pH 3 (80:20) at RT. The mixture was centrifuged at 5000 rpm for 10 minutes. The supernatant was analyzed by HPLC to determine the amount of the test compound and up to two byproducts. To values resulted from a processed sample immediately taken after vortexing with plasma at RT. The peak areas (in percentage) were used for quantification. All data was given as percent area of the initial compound at to. The results of these assays are shown in FIG. 1 and FIG. 2 for rat and human plasma, respectively.

For data set [10] the following is noted: buffer pH 7.4, 37° C. The procedure: Method for measurement of stability in buffer: 0.15 mg of the test compound was dissolved in 0.1 ml dimethylsulfoxide and 0.4 ml acetonitrile. For complete dissolution, the HPLC vial with the sample solution was shaken and sonicated. Then 1.0 ml of the respective buffer solution was added, and the sample was vortexed. The sample solution was analysed by HPLC to determine the amount of the test compound and up to two byproducts at a particular time over a period of 24 h at 37° C. […] The peak areas (in percentage) were used for quantification.

Where [11] appears, read: without (−) neutrophil elastase.
The mark [12] stands for this setting: HT29, without (−) neutrophil elastase.
[13] abbreviates: SUM149, without (−) neutrophil elastase.

SMILES strings stand for the structures. Where two headings read alike, the source gives them in different places. Some results are limits rather than exact numbers.

As for `CCCNC(=O)Nc1cccc(S(=O)(=O)Nc2cccc([C@@H](CC(=O)[O-])NC(=O)Nc3ccc(NC(=O)NCCOCCOCCOCCC(=O)N[C@@H](CC(=O)[O-])C(=O)N4CCC[C@H]4C(=O)N[C@H](C(=O)N=[S@@](C)(=O)Cc4cc5cc(c4)OCCCCOc4cc(F)ccc4-c4nc(ncc4F)N5)C(C)C)cc3)c2)c1.[Na+].[Na+]` [Compound 3], the IC50 in the data set on 786-O [1] (with (+) 10 nM neutrophil elastase) was at most 1 nM; in the data set on 786-O [1] (setting [11]), above 100 nM; in the data set with HT29 [2] (HT29, with (+) 10 nM neutrophil elastase), at most 1 nM; in the data set with HT29 [2] (setting [12]) it was above 100 nM; in the data set with NCI H292 [3] (NCI H292, with (+) 10 nM neutrophil elastase) it was at most 1 nM; with NCI H292 [3] (NCI H292, without (−) neutrophil elastase) it was above 100 nM. The IC50 in the data set with SUM149 [4] (SUM149, with (+) 10 nM neutrophil elastase) is at most 1 nM; in the data set on SUM149 [4] (setting [13]) it was above 100 nM. Further, the AC50 was 11 to 100 nM with 786-O [5] (with (+) neutrophil elastase); above 1000 nM with 786-O [5] (setting [11]); 11 to 100 nM in the data set on HT29 [6] (HT29, with (+) neutrophil elastase); above 1000 nM in the data set on HT29 [6] (setting [12]); 11 to 100 nM in the data set on NCI H292 [7]; 11 to 100 nM in the data set with SUM149 [8] (SUM149, with (+) neutrophil elastase). The AC50 in the data set on SUM149 [8] (setting [13]) fell in the range of 100 to 1000 nM. The “time stable in plasma (no significant degradation)” value in data set [9] (human plasma) and in data set [9] (rat plasma) was “at least 4 h” in each case. For the same molecule, the “time stable in buffer (no significant degradation)” value in data set [10] is listed as “at least 24 h”.

For the origin of these results see patent US20240408222A1, “COMPOUNDS, PHARMACEUTICAL COMPOSITIONS, AND METHODS FOR THE TREATMENT, PREVENTION, OR MANAGEMENT OF HYPERPRO[…]” (VINCERX PHARMA GMBH, priority 2021, published 2024).
